Measurements from publication PMC12643529 (ACS Infectious Diseases, 2025).
One block for each compound: values may come before it.

Experiments:
[1] = tested on: F21T (DNA, G4) GGGTTAGGGTTAGGGTTAGGG; experiment: FRET melting; conditions: 10 mM Li cacodylate, compound 10 µM, DNA 200 nM
HT-29 cells = experiment: alamarBlue antiproliferative assay, HT-29; assay type: cell-based, human; conditions: for IC50: Homo sapiens, HT-29, 72 h, alamarBlue; for selectivity index (SI) HT-29: SI = IC50 MRC-5/IC50 HT-29
[2] = tested on: FEbr1T (T. brucei G-quadruplex); experiment: FRET melting assay, FEbr1T; assay type: binding; conditions: ligand 10 μM, oligonucleotide 200 nM, 10 mM KCl
MRC-5 cells = experiment: alamarBlue cytotoxicity assay, MRC-5; assay type: cell-based; conditions: 72 h
[3] = tested on: F10T (hairpin duplex DNA); assay type: binding; conditions: ligand 10 μM, oligonucleotide 200 nM, 10 mM KCl
[4] = tested on: F21T Na+ (human telomeric G-quadruplex, sodium buffer); assay type: binding; conditions: ligand 10 μM, oligonucleotide 200 nM, 100 mM NaCl
HeLa cells = experiment: alamarBlue antiproliferative assay, HeLa; assay type: cell-based, human; conditions: for IC50: Homo sapiens, HeLa, 72 h, alamarBlue; for selectivity index (SI) HeLa: SI = IC50 MRC-5/IC50 HeLa
[5] = tested on: promastigote form of L. major; experiment: MTT-based antileishmanial assay, promastigotes; assay type: cell-based, Leishmania major; conditions: for IC50: promastigotes, 72 h, MTT, error as σ; for selectivity index (SI) L. major: SI = IC50 MRC-5/IC50 L. major promastigotes
Description: The antileishmanial activity of the compounds against the promastigote form of L. major, the […] was determined using an MTT-based assay (Sigma-Aldrich). Stock solutions of the compounds were prepared in DMSO with the final DMSO percentage in each well maintained below 1%. 4 × 10^6 parasites per mL were incubated at 28 °C in 96-well plates (50 μL/well) either alone or in the presence of increasing concentrations of compounds DMSO for 72 h. After the incubation period, 10 μL of MTT (5 mg/mL) was added to each well, and the parasites were incubated for 4 h at 28 °C. Subsequently, cell lysis was performed using 50 μL/well of 20% SDS. […] Data were presented as the average of at least three independent measurements, each conducted under triplicate conditions. […] “single marker” […] S7

[6] = tested on: Fmt6363T (human mitochondrial G-quadruplex); experiment: FRET melting assay, Fmt6363T; assay type: binding; conditions: ligand 10 μM, oligonucleotide 200 nM, 10 mM KCl
[7] = tested on: FMycT (c-Myc promoter G4); experiment: FRET melting assay, FMycT; assay type: binding; conditions: ligand 10 μM, oligonucleotide 200 nM, 1 mM KCl
[8] = tested on: bloodstream form of T. brucei; experiment: alamarBlue (resazurin) antitrypanosomal assay; assay type: cell-based, Trypanosoma brucei; conditions: for IC50: bloodstream form, 72 h, alamarBlue/resazurin, error as σ; for selectivity index (SI) T. brucei: SI = IC50 MRC-5/IC50 T. brucei (resazurin assay)
[9] = tested on: F21T K+ (human telomeric G-quadruplex, potassium buffer); assay type: binding; conditions: ligand 10 μM, oligonucleotide 200 nM, 10 mM KCl
[10] = tested on: FMycT (DNA, G4) TTGAGGGTGGGTAGGGTGGGTAA; experiment: FRET melting; conditions: K+ (1 mM KCl), 99 mM LiCl; 10 mM Li cacodylate; compound 10 µM, DNA 200 nM
THP-1 cells = experiment: alamarBlue cytotoxicity assay, PMA-differentiated THP-1; assay type: cell-based, human; conditions: PMA-differentiated THP-1, 72 h
[11] = tested on: intracellular amastigote form of L. major; experiment: Luciferase assay, intracellular amastigotes in THP-1 macrophages; assay type: cell-based, Leishmania major; conditions: for IC50: intracellular amastigotes in THP-1 macrophages, 72 h, luciferase; for selectivity index (SI) THP-1: SI = IC50 THP-1/IC50 L. major amastigotes
Description: The antileishmanial activity of the compounds against the intracellular form of L. major was evaluated using the Luciferase Assay System kit from Promega. THP-1 cells were seeded at a density of 3 × 10^5 cells/mL in 96-well plates (100 μL/well) and treated with 20 ng/mL PMA (phorbol 12-myristate 13-acetate, Sigma) for 48 h to induce differentiation. Postdifferentiation, the cells were washed, and fresh medium was added (100 μL/well) before being reincubated. Following an additional 24 h, the wells were washed, and 50 μL of L. major parasites at a density of 1.5 × 10^6 parasites/mL (suspended in RPMI-1640 medium 5% hiFBS and 5% penicillin/streptomycin) were added to the wells. The plates were then incubated at 35 °C in 5% CO2. After 24 h, the wells were washed three times with PBS, and fresh medium with increasing concentrations of compounds was added (100 μL/well). After another 72 h of incubation, the cells were then treated with 25 μL of lysis buffer and stored at −80 °C. Following 24 h, 25 μL of luciferase enzyme substrate was added to each well, and the luciferase activity of the amastigotes was determined using a TECAN Infinite F200 microplate reader. […] Data were presented as the average of at least three independent measurements, each conducted under triplicate conditions.
Parasite and cell culturing […]
Leishmania major (MHOM/IL/80/Friedlin) promastigotes and its derivative luminescent strain L. major LucRE9 with the luciferase gene integrated into the parasite genome (LUC) were cultured at 28 °C, 5 % CO2 in modified RPMI-1640 medium (Invitrogen, Carlsbad, CA) supplemented with 10 % hiFBS6, including […] blasticidin in the LucRE9 strain. 7 Parasites were maintained in culture in their […] growth phase (below 2 million T. brucei parasites per mL, ,10 million L. major parasites per mL for promastigotes experiments), and in the stationary phase , 20 million L. major parasites per mL for THP -1 infection experiments.
MRC-5 cell line (human lung fibroblast) was grown in monolayer at 37 °C, 5 % CO2 in DMEM medium (1 g/L glucose) supplemented with 10% hiFBS, 100 U/mL penicillin, […] streptomycin and 2 mM L-glutamine.8
THP-1 cells (human monocytic cell line) were maintained in RPMI-1640 medium supplemented with 10% heat-inactivated fetal bovine serum (hiFBS) and 5 % penicillin/streptomycin (37 °C, 5 % CO2, and 100 % humidity). […]

[12] = tested on: FEbr1T (DNA, G4) GGGCAGGGGGTGATGGGGAGGAGCCAGGG; experiment: FRET melting; conditions: K+ (10 mM KCl), 90 mM LiCl; 10 mM Li cacodylate; compound 10 µM, DNA 200 nM

SMILES: CN(C)c1ccc(/C=C/c2sc3ccccc3[n+]2C)c2ccccc12.[I-] [2g]
ΔTm ([1]; Na+ (100 mM NaCl)): 3.4 ± 0.5 °C
IC50 (HT-29 cells): 89.5 ± 9.55 µM
selectivity index (SI) HT-29 (HT-29 cells): 0.04
ΔTm FEbr1T [2]: 8.9 ± 0.5 °C
IC50 (MRC-5 cells; MRC5, human lung fibroblasts): 4.01 ± 0.09 µM
ΔTm F10T [3]: 0.4 ± 0.1 °C
ΔTm F21T Na+ [4]: 3.4 ± 0.5 °C
IC50 (HeLa cells): 29.1 ± 1.05 µM
selectivity index (SI) HeLa (HeLa cells): 0.14
IC50 ([5]; Leishmania major): 170 ± 40 nM
selectivity index (SI) L. major [5]: 23.9
ΔTm Fmt6363T [6]: 7.7 ± 0.3 °C
ΔTm FMycT [7]: 3.0 ± 1.1 °C
IC50 ([8]; Trypanosoma brucei): 20 ± 15 nM
ΔTm F21T K+ [9]: 9.7 ± 0.2 °C
ΔTm [10]: 3.0 ± 1.1 °C

SMILES: C[C@@H]1[C@H](O)[C@@H](C)/C=C/C=C/C=C/C=C/C=C/C=C/C=C/[C@H](O[C@@H]2O[C@H](C)[C@@H](O)[C@H](N)[C@@H]2O)C[C@@H]2O[C@](O)(C[C@@H](O)C[C@@H](O)[C@H](O)CC[C@@H](O)C[C@@H](O)CC(=O)O[C@H]1C)C[C@H](O)[C@H]2C(=O)O [AmB, Amphotericin B]
IC50 (THP-1 cells; Homo sapiens): 9.89 ± 1.98 µM
IC50 ([11]; Leishmania major): 4.41 ± 1.96 µM
selectivity index (SI) THP-1 [11]: 2.24
IC50 ([5]; Leishmania major): 1920 ± 50 nM

SMILES: COS(=O)(=O)[O-].Cc1cc2c3c([n+](C)c4ccc(F)cc4c3c1)-c1cc(F)ccc1N2C [RHPS4, 3,11-Difluoro-6,8,13-Trimethyl-8H-Quino[4,3,2-Kl]Acridinium Methosulfate, reference compound]
IC50 (THP-1 cells): 214 ± 3.36 µM
selectivity index (SI) MRC-5 ([11]; SI = IC50 MRC-5/IC50 L. major amastigotes): 137.33
selectivity index (SI) THP-1 [11]: 7,131
IC50 [11]: 0.03 ± 0.02 µM
IC50 (MRC-5 cells; human lung fibroblasts): 4.12 ± 0.52 µM
selectivity index (SI) L. major [5]: 93.64
IC50 [5]: 44 ± 15 nM
selectivity index (SI) T. brucei [8]: 11.77
IC50 [8]: 350 ± 60 nM

SMILES: C[n+]1c(/C=C/c2ccccc2)sc2ccccc21.[I-] [compound 2a]
IC50 (MRC-5 cells; MRC5, human lung fibroblasts): 2.02 ± 0.12 µM
IC50 ([5]; Leishmania major): 480 ± 110 nM
selectivity index (SI) L. major [5]: 4.2
selectivity index (SI) T. brucei [8]: 5.5
IC50 ([8]; Trypanosoma brucei): 370 ± 180 nM

SMILES: C[n+]1c(/C=C/c2ccc(N(c3ccccc3)c3ccccc3)cc2)sc2ccccc21.[I-] [compound 2c]
IC50 (HT-29 cells): 8.91 ± 0.88 µM
selectivity index (SI) HT-29 (HT-29 cells): 0.58
ΔTm FEbr1T [2]: 13.5 °C
ΔTm F10T [3]: 0.7 ± 0.1 °C
ΔTm F21T Na+ [4]: 9.4 ± 0.5 °C
IC50 (HeLa cells): 8.89 ± 1.59 µM
selectivity index (SI) HeLa (HeLa cells): 0.58
ΔTm Fmt6363T [6]: 10.2 ± 0.5 °C
ΔTm FMycT [7]: 8.6 ± 1.0 °C
IC50 ([8]; Trypanosoma brucei): 340 ± 130 nM
ΔTm F21T K+ [9]: 12.7 ± 0.4 °C

SMILES: C[n+]1c(/C=C/c2ccc(-c3ccc(-c4ccc(N(c5ccccc5)c5ccccc5)cc4)cc3)o2)sc2ccccc21.[I-] [compound 2d]
ΔTm ([1]; K+ (10 mM KCl), 90 mM LiCl): 18.5 ± 1.9 °C
ΔTm ([1]; Na+ (100 mM NaCl)): 22.9 ± 0.9 °C
IC50 (HT-29 cells): 3.79 ± 0.13 µM
selectivity index (SI) HT-29 (HT-29 cells): 0.86
ΔTm FEbr1T [2]: 20.5 °C
IC50 (MRC-5 cells; MRC5, human lung fibroblasts): 3.24 ± 0.14 µM
ΔTm [12]: 20.5 ± 1.3 °C
ΔTm F10T [3]: 1.0 ± 0.1 °C
ΔTm F21T Na+ [4]: 22.9 ± 0.9 °C
IC50 (HeLa cells): 5.28 ± 0.11 µM
selectivity index (SI) HeLa (HeLa cells): 0.62
IC50 ([5]; Leishmania major): 330 ± 17 nM
selectivity index (SI) L. major [5]: 9.8
ΔTm Fmt6363T [6]: 18.5 ± 0.9 °C
ΔTm FMycT [7]: 16.7 ± 0.7 °C
IC50 ([8]; Trypanosoma brucei): 10 ± 5 nM
ΔTm F21T K+ [9]: 18.5 °C
ΔTm [10]: 16.7 ± 0.7 °C

IC50 (HT-29 cells): 76.4 ± 1.44 µM
IC50 (HeLa cells): 78 ± 8.26 µM
SMILES: Cn1cccc1/C=C/c1sc2ccccc2[n+]1C.[I-] [compound 2e]
selectivity index (SI) HT-29 (HT-29 cells): 0.12
IC50 (MRC-5 cells; MRC5, human lung fibroblasts): 9.4 ± 1.06 µM
selectivity index (SI) HeLa (HeLa cells): 0.12
IC50 ([5]; Leishmania major): 240 ± 29 nM
selectivity index (SI) L. major [5]: 39.6
selectivity index (SI) T. brucei [8]: 4.1
IC50 ([8]; Trypanosoma brucei): 2290 ± 310 nM

SMILES: Cn1cccc1-c1ccc(/C=C/c2sc3ccccc3[n+]2C)s1 [compound 2f]
IC50 (MRC-5 cells; MRC5, human lung fibroblasts): 3.68 ± 0.17 µM
IC50 ([5]; Leishmania major): 610 ± 92 nM
selectivity index (SI) L. major [5]: 6.0
selectivity index (SI) T. brucei [8]: 6.0
IC50 ([8]; Trypanosoma brucei): 610 ± 45 nM

SMILES: C[n+]1c(/C=C/c2cc3c4c(c2)CCCN4CCC3)sc2ccccc21.[I-] [compound 2h]
IC50 (HT-29 cells): 1 ± 0.16 µM
selectivity index (SI) HT-29 (HT-29 cells): 0.08
ΔTm FEbr1T [2]: 14.1 °C
ΔTm F10T [3]: 0.9 ± 0.4 °C
ΔTm F21T Na+ [4]: 9.4 ± 0.3 °C
IC50 (HeLa cells): 0.84 ± 0.01 µM
selectivity index (SI) HeLa (HeLa cells): 0.09
ΔTm Fmt6363T [6]: 15.0 ± 0.4 °C
ΔTm FMycT [7]: 12.6 ± 0.9 °C
IC50 ([8]; Trypanosoma brucei): 0.26 ± 0.17 nM
ΔTm F21T K+ [9]: 16.9 °C

SMILES: C[n+]1c(/C=C/c2ccc(-c3ccc(N(c4ccccc4)c4ccccc4)cc3)s2)sc2ccccc21 [compound 2i]
IC50 (MRC-5 cells; MRC5, human lung fibroblasts): 3.88 ± 0.17 µM
IC50 ([5]; Leishmania major): 45 ± 12 nM
selectivity index (SI) L. major [5]: 86.2
selectivity index (SI) T. brucei [8]: 2.12
IC50 ([8]; Trypanosoma brucei): 1830 ± 60 nM

SMILES: CSc1ccc(OCc2ncc([N+](=O)[O-])n2C)cc1 [fexinidazole, reference compound]
IC50 ([8]; Trypanosoma brucei): 880 ± 20 nM

SMILES: CCCCCCCCCCCCCCCCOP(=O)([O-])OCC[N+](C)(C)C [miltefosine]
IC50 (THP-1 cells; Homo sapiens): 55.19 ± 0.11 µM
IC50 ([11]; Leishmania major): 5.1 ± 0.56 µM
selectivity index (SI) THP-1 [11]: 10.82
IC50 ([5]; Leishmania major): 5710 ± 460 nM

SMILES: Cc1ccc(C(=O)Nc2ccc(S(=O)(=O)O)c3cc(S(=O)(=O)O)cc(S(=O)(=O)O)c23)cc1NC(=O)c1cccc(NC(=O)Nc2cccc(C(=O)Nc3cc(C(=O)Nc4ccc(S(=O)(=O)O)c5cc(S(=O)(=O)O)cc(S(=O)(=O)O)c45)ccc3C)c2)c1 [suramin, reference compound]
IC50 ([8]; Trypanosoma brucei): 4.2 ± 0.3 nM
